Experimental data published in US20210386789A1, “Enhancement of Mesenchymal Stem Cell Anti-inflammatory and Regenerative Activity Using mTOR Inhibitors” (BRAIN CANCER RESEARCH INSTITUTE, priority 2020, published 2021).

Tested on: Bone marrow MSCs
Assay: HGF-1 production by bone marrow MSCs cultured with rapamycin (ELISA)
Format: cell-based
Conditions: bone marrow MSCs (ATCC), 96 well plates, indicated concentrations of rapamycin and time points, ELISA (R&D Systems), FIG. 1
Protocol: Bone marrow MSCs were purchased from American Type Culture Collection (hereinafter, “ATCC”) and grown in DMEM media with 10% fetal calf serum. Cells were allowed to expand to 100% confluence. The media was subsequently washed with phosphate buffered saline (PBS). Cells were plated on 96 well plates and cultured in the presence of the indicated concentrations of rapamycin for the indicated time points. Hepatocyte Growth Factor (HGF-1) expression was assessed using ELISA (R&D Systems).

For `CO[C@H]1C[C@@H]2CC[C@@H](C)[C@@](O)(O2)C(=O)C(=O)N2CCCC[C@H]2C(=O)O[C@H]([C@H](C)C[C@@H]2CC[C@@H](O)[C@H](OC)C2)CC(=O)[C@H](C)/C=C(\C)[C@@H](O)[C@@H](OC)C(=O)[C@H](C)C[C@H](C)/C=C/C=C/C=C/1C` [rapamycin, Rapamycin], which “Hepatocyte Growth Factor (HGF-1) expression / production” value is on record?
The value was “significant increase in production of HGF-1”.
